# From patent publication US8765820B2, “Tranylcypromine derivatives as inhibitors of histone demethylases LSD1 and/or LSD2” (Universita Degli Studi di Roma “La Sapienza”, priority 2010, dated 2014)
# Where a name gives a salt, the structure may show the parent alone. Read-outs that look alike come from different tables or passages of the source.
# Key:
# [1] = target: Mouse recombinant LSD2 (Mus musculus (Mouse), UniProt Q8CIG3); assay: LSD2 inhibition, peroxidase-coupled assay with histone H3 peptide di-methylated at Lys4; assay type: biochemical; settings: for Ki: pH 8.0, steady-state competition experiments, errors within 30%
# [2] = target: Human recombinant MAO A (Homo sapiens (Human), UniProt P21397); assay: MAO A inhibition, peroxidase-coupled assay with kynuramine as substrate; assay type: biochemical
# [3] = target: Human recombinant MAO B (Homo sapiens (Human), UniProt P27338); assay: MAO B inhibition, peroxidase-coupled assay with benzylamine as substrate; assay type: biochemical; settings: for MAO B Ki: 25° C., pH 7.5, no inhibition = no detectable inhibition at inhibitor saturated solutions
# [4] = target: Human recombinant LSD1/CoREST (Homo sapiens (Human), UniProt O60341); assay: LSD1 inhibition, peroxidase-coupled assay with histone H3 peptide mono-methylated at Lys4; assay type: biochemical
# [5] = system: NB4 cells; settings: RA 10 nM in the absence of 6e
# Chain of Human recombinant MAO A (P21397 whole entry, looked up): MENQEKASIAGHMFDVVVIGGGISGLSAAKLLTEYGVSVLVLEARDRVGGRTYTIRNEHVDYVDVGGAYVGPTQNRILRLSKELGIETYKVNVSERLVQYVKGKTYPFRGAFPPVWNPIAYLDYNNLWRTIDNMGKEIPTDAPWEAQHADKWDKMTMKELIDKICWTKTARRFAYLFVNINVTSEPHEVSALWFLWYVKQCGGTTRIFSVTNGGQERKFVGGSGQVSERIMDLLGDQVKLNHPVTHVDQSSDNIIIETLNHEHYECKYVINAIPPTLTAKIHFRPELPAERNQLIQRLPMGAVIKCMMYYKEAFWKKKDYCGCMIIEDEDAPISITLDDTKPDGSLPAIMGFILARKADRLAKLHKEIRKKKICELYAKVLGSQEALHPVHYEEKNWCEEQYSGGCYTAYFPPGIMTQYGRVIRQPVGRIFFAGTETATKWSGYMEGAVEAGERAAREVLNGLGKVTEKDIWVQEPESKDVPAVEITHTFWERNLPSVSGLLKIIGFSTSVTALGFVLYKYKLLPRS
# Chain of Human recombinant MAO B (P27338 whole entry): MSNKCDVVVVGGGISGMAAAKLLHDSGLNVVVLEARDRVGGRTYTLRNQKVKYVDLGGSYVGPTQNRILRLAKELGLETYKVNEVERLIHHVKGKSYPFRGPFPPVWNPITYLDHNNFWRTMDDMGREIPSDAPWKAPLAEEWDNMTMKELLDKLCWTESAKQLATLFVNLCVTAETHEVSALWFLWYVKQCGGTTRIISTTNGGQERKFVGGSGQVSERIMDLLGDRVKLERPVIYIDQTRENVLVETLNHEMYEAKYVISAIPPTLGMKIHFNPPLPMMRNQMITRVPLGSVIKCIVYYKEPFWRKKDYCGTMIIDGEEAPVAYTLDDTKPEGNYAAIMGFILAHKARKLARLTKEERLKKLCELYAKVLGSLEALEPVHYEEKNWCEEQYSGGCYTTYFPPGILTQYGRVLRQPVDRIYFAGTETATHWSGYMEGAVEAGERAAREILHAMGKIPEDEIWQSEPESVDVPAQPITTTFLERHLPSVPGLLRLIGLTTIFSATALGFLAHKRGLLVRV
# Chain of Mouse recombinant LSD2 (Q8CIG3 whole entry): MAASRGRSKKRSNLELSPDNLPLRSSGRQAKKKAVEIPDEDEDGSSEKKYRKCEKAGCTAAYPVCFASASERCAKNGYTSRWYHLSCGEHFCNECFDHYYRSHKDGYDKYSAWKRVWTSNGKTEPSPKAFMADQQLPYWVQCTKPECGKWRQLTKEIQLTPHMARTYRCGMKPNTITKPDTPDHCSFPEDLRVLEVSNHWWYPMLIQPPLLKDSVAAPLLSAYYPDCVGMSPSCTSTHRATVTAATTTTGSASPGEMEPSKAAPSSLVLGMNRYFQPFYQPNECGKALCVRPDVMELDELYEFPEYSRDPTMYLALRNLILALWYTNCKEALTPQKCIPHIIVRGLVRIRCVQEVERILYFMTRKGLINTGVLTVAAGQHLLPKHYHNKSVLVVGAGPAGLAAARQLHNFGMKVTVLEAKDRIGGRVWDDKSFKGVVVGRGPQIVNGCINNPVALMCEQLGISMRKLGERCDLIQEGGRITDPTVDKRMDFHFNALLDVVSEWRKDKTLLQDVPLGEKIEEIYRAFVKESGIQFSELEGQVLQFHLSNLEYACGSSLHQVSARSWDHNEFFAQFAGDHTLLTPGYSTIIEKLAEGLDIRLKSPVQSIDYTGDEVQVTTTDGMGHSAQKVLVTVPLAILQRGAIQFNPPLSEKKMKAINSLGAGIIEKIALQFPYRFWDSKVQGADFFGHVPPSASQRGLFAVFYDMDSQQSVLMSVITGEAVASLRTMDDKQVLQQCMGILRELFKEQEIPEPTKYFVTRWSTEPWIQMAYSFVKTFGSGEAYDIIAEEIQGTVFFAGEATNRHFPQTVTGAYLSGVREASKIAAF
Compound,MAO A inhibition [2],LSD2 inhibition [1],MAO B inhibition [3],also measured
"CC(C)C(NC(=O)OCc1ccccc1)C(=O)Nc1ccc([C@@H]2C[C@H]2N)cc1 (relative stereo) (as salt: hydrochloride) [Compound 6a, trans benzyl 1-(4-(2-aminocyclopropyl)phenylamino)-3-methyl-1-oxobutan-2-ylcarbamate]",,,,melting point: 168 to 170 °C
"CC(C)CC(NC(=O)OCc1ccccc1)C(=O)Nc1ccc([C@@H]2C[C@H]2N)cc1 (relative stereo) (as salt: hydrochloride) [Compound 6b, trans benzyl 1-(4-(2-aminocyclopropyl)phenylamino)-4-methyl-1-oxopentan-2-ylcarbamate]",,,,melting point: 158 to 160 °C
"N[C@@H]1C[C@H]1c1ccc(NC(=O)OCc2ccccc2)cc1 (relative stereo) [Compound 5a, trans benzyl 4-(2-aminocyclopropyl)phenylcarbamate]",,,,Ki ([1]; 25° C.): 20 µM
"N[C@@H]1C[C@H]1c1ccc(NC(=O)c2ccccc2)cc1 (relative stereo) [Compound 5b, trans N-(4-(2-aminocyclopropyl)phenyl)benzamide]",,,,Ki ([1]; 25° C.): 61 µM
"CC(C)C(NC(=O)OCc1ccccc1)C(=O)Nc1ccc([C@@H]2C[C@H]2N)cc1 (relative stereo) [Compound 6a, trans benzyl 1-(4-(2-aminocyclopropyl)phenylamino)-3-methyl-1-oxobutan-2-ylcarbamate]",+,+,−,LSD1 inhibition [4]: +
"CC(C)CC(NC(=O)OCc1ccccc1)C(=O)Nc1ccc([C@@H]2C[C@H]2N)cc1 (relative stereo) [Compound 6b, trans benzyl 1-(4-(2-aminocyclopropyl)phenylamino)-4-methyl-1-oxopentan-2-ylcarbamate]",+,+,−,LSD1 inhibition [4]: +
"N[C@@H]1C[C@H]1c1ccc(NC(=O)C(Cc2ccccc2)NC(=O)OCc2ccccc2)cc1 (relative stereo) [Compound 6e, trans benzyl 1-(4-(2-aminocyclopropyl)phenylamino)-1-oxo-3-phenylpropan-2-ylcarbamate]",,,,MAO B Ki [3]: no inhibition^d
"Cl.N[C@@H]1C[C@H]1c1ccc(NC(=O)CCCCCCC(=O)NO)cc1 (relative stereo) [Compound 9, trans N^1-(4-(2-aminocyclopropyl)phenyl)-N^8-hydroxyoctanediamide]",,,,"LSD2 inhibition ([1]; 25° C., 50 mM Hepes/NaOH pH 8.0, max inhibitor concentration 1 mM or saturated solution): +; MAO B inhibition ([3]; 50 mM Hepes/NaOH pH 7.5, 0.5% reduced Triton X-100, max inhibitor concentration 1 mM or saturated solution): +; LSD1 inhibition ([4]; 25° C., 50 mM Hepes/NaOH pH 7.5, max inhibitor concentration 1 mM or saturated solution): +"
"Cl.NC1CC1c1ccc(NC(=O)C(Cc2ccccc2)NC(=O)OCc2ccc(Br)cc2)cc1 (stereo not drawn) [Compound 7, trans 4-bromobenzyl 1-(4-(2-aminocyclopropyl)phenylamino)-1-oxo-3-phenylpropan-2-ylcarbamate]",,,−,melting point: 220 to 222 °C; MAO B Ki [3]: no inhibition^d
"Cl.NC1CC1c1ccc(NC(=O)C(Cc2ccccc2)NC(=O)OCc2ccccc2)cc1 (stereo not drawn) [Compound 8, cis benzyl 1-(4-(2-aminocyclopropyl)phenylamino)-1-oxo-3-phenylpropan-2-ylcarbamate]",,,−,MAO B Ki [3]: no inhibition^d
"CN(C(=O)C(Cc1ccccc1)NC(=O)OCc1ccccc1)c1ccc(C2CC2N)cc1.Cl (stereo not drawn) [Compound 12, trans benzyl 1-((4-(2-aminocyclopropyl)phenyl)(methyl)amino)-1-oxo-3-phenylpropan-2-ylcarbamate]",+,+,−,MAO B Ki [3]: no inhibition^d
"Cl.NC1CC1c1ccc(NC(=O)C(Cc2ccccc2)NC(=O)NCc2ccccc2)cc1 (stereo not drawn) [Compound 16, trans N-(4-(2-aminocyclopropyl)phenyl)-2-(3-benzylureido)-3-phenylpropanamide]",+,+,+,melting point: 153 to 155 °C
"CC1=C(/C=C/C(C)=C/C=C/C(C)=C/C(=O)O)C(C)(C)CCC1 [RA, retinoic acid]",,,,differentiating effect of RA alone [5]: almost totally ineffective
trans benzyl 1-(4-(2- aminocycylpropyl)phenylamino)-3- (napththalen-1-yl)-1-oxopropan-2- ylcarbamate [Compound 6j],+,+,−,LSD1 inhibition [4]: +
